This note sets out measurements from US20050277639A1, “2-Pyridinyl[7-(substituted-pyridin-4-yl)pyrazolo[1,5-a]pyrimidin-3-yl]methanones” (priority 2004, published 2005).

Structures are written as SMILES.

The experiment deals with benzodiazepine receptor (Rattus norvegicus, UniProt P18508+P62813). Kind of experiment: Competition radioligand binding assay with [3H]Ro 15-1788 in washed cerebellar membranes. The conditions noted are these: [3H]Ro 15-1788 binding; comparison with parent compound ocinaplon.

Turning to `O=C(c1ccccn1)c1cnn2c(-c3cc(Br)nc(Br)c3)ccnc12` [2,6-dibromo, 2-Pyridinyl[7-(2,6-dibromopyridin-4-yl)pyrazolo[1,5-a]pyrimidin-3-yl]methanone], the “affinity for the benzodiazepine receptor compared with ocinaplon” value is “substantially lower affinity”.
